Laboratory results as given in patent US20240058343A1, “TREATMENT OF URTICARIA USING JAK INHIBITORS” (Incyte Corporation, priority 2022, published 2024).
Read-outs that look alike come from different tables or passages of the source.

Legend:
[1] = molecular target: human JAK1 (a.a. 837-1142) (Homo sapiens, UniProt P23458); assay: In vitro JAK kinase assay (HTRF), JAK1; type: biochemical; conditions: 1 mM ATP
Method: (§1) The catalytic activity of JAK1, JAK2 or JAK3 was assayed by measuring the phosphorylation of a biotinylated peptide. The phosphorylated peptide was detected by homogenous time resolved fluorescence (HTRF). IC5os of compounds are measured for each kinase in the 40 microL reactions that contain the enzyme, ATP and 500 nM peptide in 50 mM Tris (pH 7.8) buffer with 100 mM NaCl, 5 mM DTT, and 0.1 mg/mL (0.01%) BSA. […] Reactions are carried out at room temperature for 1 hour and then stopped with 20 μL 45 mM EDTA, 300 nM SA-APC, 6 nM Eu-Py20 in assay buffer (Perkin Elmer, Boston, MA). Binding to the Europium labeled antibody takes place for 40 minutes and HTRF signal was measured on a Fusion plate reader (Perkin Elmer, Boston, MA).

JAK2 (a.a. 828-1132) = JAK2 (a.a. 828-1132) (Homo sapiens (Human), UniProt O60674); assay: In vitro JAK kinase assay (HTRF), JAK2, for JAK2/JAK1 ratio; type: biochemical; conditions: IC50 ratio at 1 mM ATP
Chain of JAK2 (a.a. 828-1132) (O60674 828-1132): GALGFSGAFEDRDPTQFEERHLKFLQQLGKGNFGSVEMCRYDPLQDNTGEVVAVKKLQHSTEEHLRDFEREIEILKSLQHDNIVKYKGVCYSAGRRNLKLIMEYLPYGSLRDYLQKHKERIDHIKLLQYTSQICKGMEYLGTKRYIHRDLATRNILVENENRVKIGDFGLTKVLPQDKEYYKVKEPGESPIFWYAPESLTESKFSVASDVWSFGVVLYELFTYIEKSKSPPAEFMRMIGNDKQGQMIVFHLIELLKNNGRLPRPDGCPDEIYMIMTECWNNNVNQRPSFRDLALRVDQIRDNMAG
Method: as §1

IgE = conditions: CSU patients, after 12 weeks, with second-generation H1 antihistamine, cited from earlier work

Row | Compound | IC50 [1] [nM] | JAK2/JAK1 (JAK2 (a.a. 828-1132)) | patients achieving a complete response (IgE) | patients achieving a complete response (IgE; listed as omalizumab) [%]
1 | N#CC[C@]1(n2cc(-c3ncnc4[nH]ccc34)cn2)C[C@H](N2CCC(Oc3cc(CCO)cc(C(F)(F)F)n3)CC2)C1 [compound 26, {trans-3-(4-{[4-(2-hydroxyethyl)-6-(trifluoromethyl)pyridin-2-yl]oxy}piperidin-1-yl)-1-[4-(7H-pyrrolo[2,3-d]pyrimidin-4-yl)-1H-pyrazol-1-yl]cyclobutyl}acetonitrile] | < 10 | >10 | – | –
2 | C[C@H](O)CNCc1cc(OC2CCN([C@H]3C[C@](CC#N)(n4cc(-c5ncnc6[nH]ccc56)cn4)C3)CC2)nc(C(F)(F)F)c1 [compound 25, {trans-3-(4-{[4-({[(2S)-2-hydroxypropyl]amino}methyl)-6-(trifluoromethyl)pyridin-2-yl]oxy}piperidin-1-yl)-1-[4-(7H-pyrrolo[2,3-d]pyrimidin-4-yl)-1H-pyrazol-1-yl]cyclobutyl}acetonitrile] | < 10 | >10 | – | –
3 | C[C@@H](O)c1nc2cnc3ccsc3c2n1[C@H]1CC[C@H](CC#N)OC1 [compound 5, ((2R,5S)-5-{2-[(1R)-1-hydroxyethyl]-1H-imidazo[4,5-d]thieno[3,2-b]pyridin-1-yl}tetrahydro-2H-pyran-2-yl)acetonitrile] | < 100 | >10 | – | –
4 | N#CCC(C1CCN(c2cccc(Cl)n2)C1)n1cc(-c2ncnc3[nH]ccc23)cn1 (single isomer, unassigned) [compound 6, 3-[1-(6-chloropyridin-2-yl)pyrrolidin-3-yl]-3-[4-(7H-pyrrolo[2,3-d]pyrimidin-4-yl)-1H-pyrazol-1-yl]propanenitrile] | < 10 | >10 | – | –
5 | N#CCC1(n2cc(-c3ncnc4[nH]ccc34)cn2)CN([C@H]2CC[C@@H](Oc3cc(CN4CC[C@@H](O)C4)cc(C(F)(F)F)n3)CC2)C1 [compound 21, {1-(cis-4-{[4-{[(3R)-3-hydroxypyrrolidin-1-yl]methyl}-6-(trifluoromethyl)pyridin-2-yl]oxy}cyclohexyl)-3-[4-(7H-pyrrolo[2,3-d]pyrimidin-4-yl)-1H-pyrazol-1-yl]azetidin-3-yl}acetonitrile] | < 10 | >10 | – | –
6 | N#CC[C@]1(n2cc(-c3ncnc4[nH]ccc34)cn2)C[C@H](N2CCC(Oc3cc(CN4CC(O)C4)cc(C(F)(F)F)n3)CC2)C1 [compound 11, {trans-3-(4-{[4-[(3-hydroxyazetidin-1-yl)methyl]-6-(trifluoromethyl)pyridin-2-yl]oxy}piperidin-1-yl)-1-[4-(7H-pyrrolo[2,3-d]pyrimidin-4-yl)-1H-pyrazol-1-yl]cyclobutyl}acetonitrile] | < 10 | >10 | – | –
7 | N#CC[C@]1(n2cc(-c3ncnc4[nH]ccc34)cn2)C[C@H](N2CCN(C(=O)c3ccnc(C(F)(F)F)n3)CC2)C1 [compound 10, [trans-1-[4-(7H-pyrrolo[2,3-d]pyrimidin-4-yl)-1H-pyrazol-1-yl]-3-(4-{[2-(trifluoromethyl)pyrimi-din-4-yl]carbonyl}piperazin-1-yl)cyclobutyl]acetonitrile] | < 10 | >10 | – | –
8 | N#CCC1(n2cc(-c3ncnc4[nH]ccc34)cn2)CN([C@H]2CC[C@@H](Oc3cc(CCO)nc(C(F)(F)F)n3)CC2)C1 [compound 18, {1-(cis-4-{[6-(2-hydroxyethyl)-2-(trifluoromethyl)pyrimi-din-4-yl]oxy}cyclohexyl)-3-[4-(7H-pyrrolo[2,3-d]pyrimidin-4-yl)-1H-pyrazol-1-yl]azetidin-3-yl}acetonitrile] | < 10 | >10 | – | –
9 | N#CCC1(n2cc(-c3ncnc4[nH]ccc34)cn2)CN(C2CCN(C(=O)Nc3ccc(F)cc3C(F)(F)F)CC2)C1 [compound 2, 4-{3-(Cyanomethyl)-3-[4-(7H-pyrrolo[2,3-d]pyrimidin-4-yl)-1H-pyrazol-1-yl]azetidin-1-yl}-N-[4-fluoro-2-(trifluoromethyl)phenyl] piperidine-1-carboxamide] | < 10 | >10 | – | –
10 | N#CCC1(n2cc(-c3ncnc4[nH]ccc34)cn2)CN([C@H]2CC[C@@H](Oc3cc(CN4CC[C@H](O)C4)cc(C(F)(F)F)n3)CC2)C1 [compound 22, {1-(cis-4-{[4-{[(3S)-3-hydroxypyrrolidin-1-yl]methyl}-6-(trifluoromethyl)pyridin-2-yl]oxy}cyclohexyl)-3-[4-(7H-pyrrolo[2,3-d]pyrimidin-4-yl)-1H-pyrazol-1-yl]azetidin-3-yl}acetonitrile] | < 10 | >10 | – | –
11 | Omalizumab: an anti-IgE monoclonal antibody (administered subcutaneously) | – | – | approximately 35% | ~35
12 | CCNCc1cc(O[C@H]2CC[C@@H](N3CC(CC#N)(n4cc(-c5ncnc6[nH]ccc56)cn4)C3)CC2)nc(C(F)(F)F)c1 [compound 19, {1-(cis-4-{[4-[(ethylamino)methyl]-6-(trifluoromethyl)pyridin-2-yl]oxy}cyclohexyl)-3-[4-(7H-pyrrolo[2,3-d]pyrimidin-4-yl)-1H-pyrazol-1-yl]azetidin-3-yl}acetonitrile] | < 10 | >10 | – | –
13 | N#CCC(C1CCN(c2nc3cccnc3o2)C1)n1cc(-c2ncnc3[nH]ccc23)cn1 (centres unmarked) [compound 7, 3-(1-[1,3]oxazolo[5,4-b]pyridin-2-ylpyrrolidin-3-yl)-3-[4-(7H-pyrrolo[2,3-d]pyrimidin-4-yl)-1H-pyrazol-1-yl]propanenitrile] | < 10 | >10 | – | –
14 | N#CC[C@]1(n2cc(-c3ncnc4[nH]ccc34)cn2)C[C@H](N2CCC(Oc3cc(CN4CCC[C@@H]4CO)cc(C(F)(F)F)n3)CC2)C1 [compound 13, {trans-3-(4-{[4-{[(2R)-2-(hydroxymethyl)pyrroli-din-1-yl]methyl}-6-(trifluoromethyl)pyridin-2-yl]oxy}piperidin-1-yl)-1-[4-(7H-pyrrolo[2,3-d]pyrimidin-4-yl)-1H-pyrazol-1-yl]cyclobutyl}acetonitrile] | < 10 | >10 | – | –
15 | C[C@@H](CO)NCc1cc(OC2CCN([C@H]3C[C@](CC#N)(n4cc(-c5ncnc6[nH]ccc56)cn4)C3)CC2)nc(C(F)(F)F)c1 [compound 23, {trans-3-(4-{[4-({[(1S)-2-hydroxy-1-methylethyl]amino}meth-yl)-6-(trifluoromethyl)pyridin-2-yl]oxy}piperidin-1-yl)-1-[4-(7H-pyrrolo[2,3-d]pyrimidin-4-yl)-1H-pyrazol-1-yl]cyclobutyl}acetonitrile] | < 10 | >10 | – | –

Second part, led by results:

Row | IC50 [1] [nM] | JAK2/JAK1 (JAK2 (a.a. 828-1132)) | Compound | patients achieving a complete response (IgE) | patients achieving a complete response (IgE; listed as omalizumab) [%]
16 | < 10 | >10 | N#CCC(CN1CCN(C(=O)c2ccc(C#N)cc2F)CC1)n1cc(-c2ncnc3[nH]ccc23)cn1 (centres unmarked) [compound 8, 4-[(4-{3-cyano-2-[4-(7H-pyrrolo[2,3-d]pyrimidin-4-yl)-1H-pyrazol-1-yl]propyl}piperazin-1-yl)carbanoyl]-3-fluorobenzonitrile] | – | –
17 | < 10 | >10 | N#CC[C@]1(n2cc(-c3ncnc4[nH]ccc34)cn2)C[C@H](N2CCC(Oc3cc(CN4CCC[C@H]4CO)cc(C(F)(F)F)n3)CC2)C1 [compound 12, {trans-3-(4-{[4-{[(2S)-2-(hydroxymethyl)pyrroli-din-1-yl]methyl}-6-(trifluoromethyl)pyridin-2-yl]oxy}piperidin-1-yl)-1-[4-(7H-pyrrolo[2,3-d]pyrimidin-4-yl)-1H-pyrazol-1-yl]cyclobutyl}acetonitrile] | – | –
18 | < 10 | >10 | N#CCC1(n2cc(-c3ncnc4[nH]ccc34)cn2)CN(C2CCN(C(=O)c3ccnc(C(F)(F)F)n3)CC2)C1 [compound 3, [3-[4-(7H-pyrrolo[2,3-d]pyrimidin-4-yl)-1H-pyrazol-1-yl]-1-(1-{[2-(trifluoromethyl)pyrimi-din-4-yl]carbonyl}piperidin-4-yl)azetidin-3-yl]acetonitrile] | – | –
19 | < 10 | >10 | N#CCC(CN1CCN(C(=O)c2ccc(C#N)cc2F)CC1)n1ccc(-c2ncnc3[nH]ccc23)c1 (centres unmarked) [compound 9, 4-[(4-{3-cyano-2-[3-(7H-pyrrolo[2,3-d]pyrimidin-4-yl)-1H-pyrrol-1-yl]propyl}piperazin-1-yl)carbonyl]-3-fluorobenzonitrile] | – | –
20 | < 10 | >10 | CC(C)(O)c1cc(O[C@H]2CC[C@@H](N3CC(CC#N)(n4cc(-c5ncnc6[nH]ccc56)cn4)C3)CC2)nc(C(F)(F)F)c1 [compound 20, {1-(cis-4-{[4-(1-hydroxy-1-methylethyl)-6-(trifluoromethyl)pyridin-2-yl]oxy}cyclohexyl)-3-[4-(7H-pyrrolo[2,3-d]pyrimidin-4-yl)-1H-pyrazol-1-yl]azetidin-3-yl}acetonitrile] | – | –
21 | < 10 | >10 | C[C@@H](O)CNCc1cc(OC2CCN([C@H]3C[C@](CC#N)(n4cc(-c5ncnc6[nH]ccc56)cn4)C3)CC2)nc(C(F)(F)F)c1 [compound 24, {trans-3-(4-{[4-({[(2R)-2-hydroxypropyl]amino}methyl)-6-(trifluoromethyl)pyridin-2-yl]oxy}piperidin-1-yl)-1-[4-(7H-pyrrolo[2,3-d]pyrimidin-4-yl)-1H-pyrazol-1-yl]cyclobutyl}acetonitrile] | – | –
22 | < 10 | >10 | C[C@H](NC(=O)c1cc(F)c(N2CC(CC#N)(n3cc(-c4ncnc5[nH]ccc45)cn3)C2)cc1F)C(F)(F)F [compound 16, 4-{3-(cyanomethyl)-3-[4-(7H-pyrrolo[2,3-d]pyrimidin-4-yl)-1H-pyrazol-1-yl]azetidin-1-yl}-2,5-difluoro-N-[(1S)-2,2,2-trifluoro-1-methylethyl)benzamide] | – | –
